Source: patent publication US10259810B2, “N-sulfonylated pyrazolo[3,4-b]pyridin-6-carboxamides and method of use” (AbbVie S.à.r.l., priority 2015, dated 2019)

Assays:
Assay type in all cases: cell-based
ΔF508-CFTR [1] = target: T1, ΔF508-CFTR (Homo sapiens, UniProt P13569, DEL508-508); assay: CFTR cell surface levels using HRP-tagged ΔF508-CFTR expressing CFBE cells, intrinsic corrector capacity; parameters: % Activation: concentration or dose not given beside the values; conditions: HRP-tagged ΔF508-CFTR expressing CFBE41o- cells, compound alone (intrinsic corrector capacity), 20 hours at 33° C.; for EC50: read-out: EC50
T1 construct: host or cells: CFBE41o-, doxycycline-inducible
T1 sequence (P13569 with tags, fused parts or gaps DEL508-508): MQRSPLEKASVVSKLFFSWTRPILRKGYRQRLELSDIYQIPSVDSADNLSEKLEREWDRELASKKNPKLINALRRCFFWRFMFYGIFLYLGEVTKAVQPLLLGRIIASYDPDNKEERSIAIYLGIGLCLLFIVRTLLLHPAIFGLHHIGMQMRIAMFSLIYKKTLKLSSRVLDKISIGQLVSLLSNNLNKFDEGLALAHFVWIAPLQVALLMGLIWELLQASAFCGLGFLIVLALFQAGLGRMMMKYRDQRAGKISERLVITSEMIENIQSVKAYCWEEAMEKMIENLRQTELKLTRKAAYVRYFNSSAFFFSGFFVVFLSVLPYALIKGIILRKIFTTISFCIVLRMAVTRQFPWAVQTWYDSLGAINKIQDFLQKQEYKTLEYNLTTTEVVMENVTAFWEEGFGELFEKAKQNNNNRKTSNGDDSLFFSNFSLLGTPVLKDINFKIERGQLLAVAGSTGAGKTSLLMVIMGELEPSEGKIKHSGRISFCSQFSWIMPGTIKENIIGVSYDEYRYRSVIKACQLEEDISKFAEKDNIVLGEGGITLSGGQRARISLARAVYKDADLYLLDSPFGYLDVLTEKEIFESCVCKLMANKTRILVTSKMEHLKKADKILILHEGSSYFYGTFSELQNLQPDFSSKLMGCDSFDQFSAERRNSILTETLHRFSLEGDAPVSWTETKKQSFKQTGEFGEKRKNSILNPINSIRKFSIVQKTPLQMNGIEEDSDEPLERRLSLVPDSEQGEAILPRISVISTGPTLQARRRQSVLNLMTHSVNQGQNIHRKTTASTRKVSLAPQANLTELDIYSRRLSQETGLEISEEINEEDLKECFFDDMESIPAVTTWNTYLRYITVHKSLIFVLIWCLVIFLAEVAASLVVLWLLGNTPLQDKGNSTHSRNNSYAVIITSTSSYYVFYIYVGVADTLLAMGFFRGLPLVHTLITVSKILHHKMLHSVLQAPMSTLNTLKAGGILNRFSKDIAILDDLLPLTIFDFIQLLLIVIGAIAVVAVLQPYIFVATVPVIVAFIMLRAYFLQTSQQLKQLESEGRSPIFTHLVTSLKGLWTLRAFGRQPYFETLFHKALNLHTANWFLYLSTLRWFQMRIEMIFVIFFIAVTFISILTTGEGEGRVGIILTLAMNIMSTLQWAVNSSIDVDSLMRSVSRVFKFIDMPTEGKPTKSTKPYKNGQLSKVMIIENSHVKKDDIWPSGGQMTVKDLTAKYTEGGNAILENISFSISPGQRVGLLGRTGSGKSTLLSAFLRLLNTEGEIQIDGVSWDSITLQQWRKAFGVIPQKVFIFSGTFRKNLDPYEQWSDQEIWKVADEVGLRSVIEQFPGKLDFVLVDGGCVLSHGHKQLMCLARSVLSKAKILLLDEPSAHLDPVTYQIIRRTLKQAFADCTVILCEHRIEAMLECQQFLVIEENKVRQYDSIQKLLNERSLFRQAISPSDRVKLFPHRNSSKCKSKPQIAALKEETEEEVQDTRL
How it was run: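 Surface ΔF508-CFTR was measured as HRP chemiluminescence from an extracellular-loop-4 tag, expressed as percent activity between DMSO and a […] corrector control.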

ΔF508-CFTR [2] = target: T1, ΔF508-CFTR; assay: CFTR cell surface levels using HRP-tagged ΔF508-CFTR expressing CFBE cells, in the presence of a co-corrector; conditions: HRP-tagged ΔF508-CFTR CFBE cells, in the presence of 3 μM co-corrector; for EC50: read-out: EC50
How it was run: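 Chemiluminescent read-out of surface HRP (15 min, dark) after PBS washes. Activity is normalized as 100×(sample−DMSO)/(3 μM co-corrector alone−DMSO).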

CFTR ΔF508 = target: T2, CFTR ΔF508 (Homo sapiens, UniProt P13569, DEL508-508); assay: Chronic TECC assay, primary bronchial epithelial cells of CF patients homozygous for CFTR ΔF508 (corrector, co-corrector and potentiator); conditions: chronic TECC, AUC = full area under the curve upon forskolin stimulation; for % Activity at 3 μM (AUC**): test compound at 3 μM; for EC50: read-out: EC50 (nM) (AUC**); for % Activity at 1 μM (AUC**): test compound at 1 μM
T2 construct: bronchial epithelial cells isolated from CF patients homozygous for the CFTR ΔF508 mutation; McGill University; Asterand; University of North Carolina hAEC-CF; host or cells: primary human bronchial epithelial cells from CF patients homozygous for ΔF508, differentiated at air-liquid interface
T2 sequence (P13569 with tags, fused parts or gaps DEL508-508): as above
How it was run: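 Primary bronchial epithelial cells from ΔF508-homozygous CF patients on collagen IV-coated Transwells were chronically treated with test compound plus corrector and potentiator, which were re-added before recording. Ieq was derived from PD and Rt in NaCl-Ringer, pH 7.4, at 37° C, with apical amiloride and bilateral forskolin, recorded every 2 min over 20 min. Ieq increase was normalized to controls, and EC50 was taken from per-well concentrations.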

O=C(NS(=O)(=O)N1CCC1)c1cc(N2CCC(N3CCOCC3)CC2)c2c(C3CCC3)nn(-c3ccc(F)cc3)c2n1 [Compound 576, N-(azetidine-1-sulfonyl)-3-cyclobutyl-1-(4-fluorophenyl)-4-[4-(morpholin-4-yl)piperidin-1-yl]-1H-pyrazolo[3,4-b]pyridine-6-carboxamide]
% Activation (ΔF508-CFTR [1]): 257.15% | EC50 (ΔF508-CFTR [1]): 0.139 µM | % Activation (ΔF508-CFTR [2]): 443.5% | EC50 (ΔF508-CFTR [2]): 0.0547 µM | % Activity at 3 μM (AUC**) (CFTR ΔF508): 225.798%

CS(=O)(=O)NC(=O)c1cc(N2CCC(OC3CCCC3)CC2)c2c(C3CCC3)nn(-c3ccccc3)c2n1 [Compound 228, 3-cyclobutyl-4-[4-(cyclopentyloxy)piperidin-1-yl]-N-(methanesulfonyl)-1-phenyl-1H-pyrazolo[3,4-b]pyridine-6-carboxamide]
% Activation (ΔF508-CFTR [1]): 217.9% | EC50 (ΔF508-CFTR [1]): 0.49 µM | % Activation (ΔF508-CFTR [2]): 395.1% | EC50 (ΔF508-CFTR [2]): 0.335 µM | EC50 (CFTR ΔF508): 32 nM | % Activity at 1 μM (AUC**) (CFTR ΔF508): 240%

COC(C)(C1CCN(c2cc(C(=O)NS(C)(=O)=O)nc3c2c(C2CCC2)nn3-c2ccccc2)CC1)C(F)(F)F (stereo not drawn) [Compound 242, 3-cyclobutyl-N-(methanesulfonyl)-1-phenyl-4-[4-(1,1,1-trifluoro-2-methoxypropan-2-yl)piperidin-1-yl]-1H-pyrazolo[3,4-b]pyridine-6-carboxamide]
% Activation (ΔF508-CFTR [1]): 242.1% | EC50 (ΔF508-CFTR [1]): 0.283 µM | % Activation (ΔF508-CFTR [2]): 459.15% | EC50 (ΔF508-CFTR [2]): 0.203 µM | EC50 (CFTR ΔF508): 14 nM | % Activity at 1 μM (AUC**) (CFTR ΔF508): 308.45%

CC(C)(O)C1CCN(c2cc(C(=O)NS(C)(=O)=O)nc3c2c(C2CCC2)nn3-c2ccccc2)CC1 [Compound 317, 3-cyclobutyl-4-[4-(2-hydroxypropan-2-yl)piperidin-1-yl]-N-(methanesulfonyl)-1-phenyl-1H-pyrazolo[3,4-b]pyridine-6-carboxamide]
% Activation (ΔF508-CFTR [1]): 269.6% | EC50 (ΔF508-CFTR [1]): 0.0935 µM | % Activation (ΔF508-CFTR [2]): 450.35% | EC50 (ΔF508-CFTR [2]): 0.0488 µM | EC50 (CFTR ΔF508): 24 nM | % Activity at 1 μM (AUC**) (CFTR ΔF508): 311.08%

COCCN(CCOC)c1ccc(-c2cc(C(=O)NS(C)(=O)=O)nc3c2c(C(C)C)nn3-c2ccnc(N3CCOCC3)c2)cn1 [Compound 252, 4-{6-[bis(2-methoxyethyl)amino]pyridin-3-yl}-N-(methanesulfonyl)-1-[2-(morpholin-4-yl)pyridin-4-yl]-3-(propan-2-yl)-1H-pyrazolo[3,4-b]pyridine-6-carboxamide]
% Activation (ΔF508-CFTR [1]): 115.2% | EC50 (ΔF508-CFTR [1]): 0.396 µM | % Activation (ΔF508-CFTR [2]): 310.75% | EC50 (ΔF508-CFTR [2]): 1.69 µM | % Activity at 1 μM (AUC**) (CFTR ΔF508): 248.51%

COCCS(=O)(=O)NC(=O)c1cc(-c2ccc(N3CCOCC3)cc2)c2c(OC(C)C)nn(-c3ccccc3)c2n1 [Compound 226, N-(2-methoxyethanesulfonyl)-4-[4-(morpholin-4-yl)phenyl]-1-phenyl-3-[(propan-2-yl)oxy]-1H-pyrazolo[3,4-b]pyridine-6-carboxamide]
% Activation (ΔF508-CFTR [1]): 206.7% | EC50 (ΔF508-CFTR [1]): 0.445 µM | % Activation (ΔF508-CFTR [2]): 392.95% | EC50 (ΔF508-CFTR [2]): 0.386 µM | EC50 (CFTR ΔF508): 56 nM | % Activity at 1 μM (AUC**) (CFTR ΔF508): 530%

CN(C)S(=O)(=O)NC(=O)c1cc(N2CCC(N3CCC(O)CC3)CC2)c2c(C3CCC3)nn(-c3ccc(F)cc3)c2n1 [Compound 605, 3-cyclobutyl-N-(dimethylsulfamoyl)-1-(4-fluorophenyl)-4-(4-hydroxy[1,4'-bipiperidin]-1'-yl)-1H-pyrazolo[3,4-b]pyridine-6-carboxamide]
% Activation (ΔF508-CFTR [1]): 207.5% | EC50 (ΔF508-CFTR [1]): 0.317 µM | % Activation (ΔF508-CFTR [2]): 395.8% | EC50 (ΔF508-CFTR [2]): 0.723 µM | % Activity at 1 μM (AUC**) (CFTR ΔF508): 726.6667%

CN(C)S(=O)(=O)NC(=O)c1cc(N2CCC(N3CCOCC3)CC2)c2c(C3CCC3)nn(-c3ccccc3)c2n1 [Compound 456, 3-cyclobutyl-N-(dimethylsulfamoyl)-4-[4-(morpholin-4-yl)piperidin-1-yl]-1-phenyl-1H-pyrazolo[3,4-b]pyridine-6-carboxamide]
% Activation (ΔF508-CFTR [1]): 268.4% | EC50 (ΔF508-CFTR [1]): 0.158 µM | % Activation (ΔF508-CFTR [2]): 457.7% | EC50 (ΔF508-CFTR [2]): 0.0933 µM | % Activity at 1 μM (AUC**) (CFTR ΔF508): 261.1621%

COC(C)(C)C1CCN(c2cc(C(=O)NS(C)(=O)=O)nc3c2c(C(C)C)nn3-c2ccc(F)cc2)CC1 [Compound 221, 1-(4-fluorophenyl)-N-(methanesulfonyl)-4-[4-(2-methoxypropan-2-yl)piperidin-1-yl]-3-(propan-2-yl)-1H-pyrazolo[3,4-b]pyridine-6-carboxamide]
% Activation (ΔF508-CFTR [1]): 322.15% | EC50 (ΔF508-CFTR [1]): 0.42 µM | % Activation (ΔF508-CFTR [2]): 492.2% | EC50 (ΔF508-CFTR [2]): 0.0772 µM | EC50 (CFTR ΔF508): 40 nM | % Activity at 1 μM (AUC**) (CFTR ΔF508): 245.9%

CC(C)Oc1cc(-n2nc(C3CCC3)c3c(N4CCC(N5CCOCC5)CC4)cc(C(=O)NS(C)(=O)=O)nc32)ccn1 [Compound 530, 3-cyclobutyl-N-(methanesulfonyl)-4-[4-(morpholin-4-yl)piperidin-1-yl]-1-{2-[(propan-2-yl)oxy]pyridin-4-yl}-1H-pyrazolo[3,4-b]pyridine-6-carboxamide]
% Activation (ΔF508-CFTR [1]): 323.1% | EC50 (ΔF508-CFTR [1]): 0.0544 µM | % Activation (ΔF508-CFTR [2]): 464.6% | EC50 (ΔF508-CFTR [2]): 0.023 µM | % Activity at 1 μM (AUC**) (CFTR ΔF508): 326.6667%

CC(C)c1nn(-c2ccnc(N3CCCC3)c2)c2nc(C(=O)NS(C)(=O)=O)cc(-c3ccc(N4CCC(C#N)CC4)nc3)c12 [Compound 158, 4-[6-(4-cyanopiperidin-1-yl)pyridin-3-yl]-N-(methanesulfonyl)-3-(propan-2-yl)-1-[2-(pyrrolidin-1-yl)pyridin-4-yl]-1H-pyrazolo[3,4-b]pyridine-6-carboxamide]
% Activation (ΔF508-CFTR [1]): 359.1% | EC50 (ΔF508-CFTR [1]): 0.622 µM | % Activation (ΔF508-CFTR [2]): 512.45% | EC50 (ΔF508-CFTR [2]): 0.267 µM | % Activity at 1 μM (AUC**) (CFTR ΔF508): 370.9%

CCOC(=O)N1CCN(C2CCN(c3cc(C(=O)NS(=O)(=O)N(C)C)nc4c3c(C3CCC3)nn4-c3ccc(F)cc3)CC2)CC1 [Compound 590, ethyl 4-(1-{3-cyclobutyl-6-[(dimethylsulfamoyl)carbamoyl]-1-(4-fluorophenyl)-1H-pyrazolo[3,4-b]pyridin-4-yl}piperidin-4-yl)piperazine-1-carboxylate]
% Activation (ΔF508-CFTR [1]): 290.3% | EC50 (ΔF508-CFTR [1]): 0.0867 µM | % Activation (ΔF508-CFTR [2]): 487.9% | EC50 (ΔF508-CFTR [2]): 0.0314 µM | % Activity at 3 μM (AUC**) (CFTR ΔF508): 220.4586%

O=C(NS(=O)(=O)N1CCOCC1)c1cc(N2CCC(N3CCOCC3)CC2)c2c(C3CCC3)nn(-c3ccc(F)cc3)c2n1 [Compound 487, 3-cyclobutyl-1-(4-fluorophenyl)-N-(morpholine-4-sulfonyl)-4-[4-(morpholin-4-yl)piperidin-1-yl]-1H-pyrazolo[3,4-b]pyridine-6-carboxamide]
% Activation (ΔF508-CFTR [1]): 203.53% | EC50 (ΔF508-CFTR [1]): 0.175 µM | % Activation (ΔF508-CFTR [2]): 404.63% | EC50 (ΔF508-CFTR [2]): 0.069 µM | % Activity at 1 μM (AUC**) (CFTR ΔF508): 340%

CC(C)Oc1nn(C2CCCCC2)c2nc(C(=O)NS(C)(=O)=O)cc(-c3ccc(C(=O)N4CCN(C)CC4)cc3)c12 [Compound 422, 1-cyclohexyl-N-(methanesulfonyl)-4-[4-(4-methylpiperazine-1-carbonyl)phenyl]-3-[(propan-2-yl)oxy]-1H-pyrazolo[3,4-b]pyridine-6-carboxamide]
% Activation (ΔF508-CFTR [1]): 222.8% | EC50 (ΔF508-CFTR [1]): 0.318 µM | % Activation (ΔF508-CFTR [2]): 434.33% | EC50 (ΔF508-CFTR [2]): 0.204 µM | % Activity at 1 μM (AUC**) (CFTR ΔF508): 320%

COCCS(=O)(=O)NC(=O)c1cc(N2CCC(COC)CC2)c2c(C(C)C)nn(-c3ccnc(N4CCOCC4)c3)c2n1 [Compound 249, N-(2-methoxyethanesulfonyl)-4-[4-(methoxymethyl)piperidin-1-yl]-1-[2-(morpholin-4-yl)pyridin-4-yl]-3-(propan-2-yl)-1H-pyrazolo[3,4-b]pyridine-6-carboxamide]
% Activation (ΔF508-CFTR [1]): 187.6% | EC50 (ΔF508-CFTR [1]): 0.371 µM | % Activation (ΔF508-CFTR [2]): 468.15% | EC50 (ΔF508-CFTR [2]): 0.231 µM | % Activity at 1 μM (AUC**) (CFTR ΔF508): 271.29%

CS(=O)(=O)NC(=O)c1cc(N2CCC(CO)CC2)c2c(C3CCC3)nn(-c3ccccc3)c2n1 [Compound 244, 3-cyclobutyl-4-[4-(hydroxymethyl)piperidin-1-yl]-N-(methanesulfonyl)-1-phenyl-1H-pyrazolo[3,4-b]pyridine-6-carboxamide]
% Activation (ΔF508-CFTR [1]): 182.7% | EC50 (ΔF508-CFTR [1]): 0.381 µM | % Activation (ΔF508-CFTR [2]): 290.6% | EC50 (ΔF508-CFTR [2]): 0.413 µM | % Activity at 1 μM (AUC**) (CFTR ΔF508): 238.89%

COCC1CCN(c2cc(C(=O)NS(C)(=O)=O)nc3c2c(C2CCC2)nn3-c2ccnc(C3CCOCC3)c2)CC1 [Compound 473, 3-cyclobutyl-N-(methanesulfonyl)-4-[4-(methoxymethyl)piperidin-1-yl]-1-[2-(oxan-4-yl)pyridin-4-yl]-1H-pyrazolo[3,4-b]pyridine-6-carboxamide]
% Activation (ΔF508-CFTR [1]): 166.3% | EC50 (ΔF508-CFTR [1]): 0.0708 µM | % Activation (ΔF508-CFTR [2]): 370.7% | EC50 (ΔF508-CFTR [2]): 0.0439 µM | % Activity at 1 μM (AUC**) (CFTR ΔF508): 243.3333%
